# Tests used:
# Assay in all cases: relative viability (nuclei count vs DMSO), 5 days (fraction); higher = more cells survive
# BI-D1870 + Olaparib = compound: CC(C)CCN1c2nc(Nc3cc(F)c(O)c(F)c3)ncc2N(C)C(=O)C1C [BI-D1870] + O=C(c1cc(Cc2n[nH]c(=O)c3ccccc23)ccc1F)N1CCN(C(=O)C2CC2)CC1 [Olaparib] (partner 8 µM)
# Summary of the method: (§1)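 Lung cancer cell lines in 1536-well plates got either a single drug or a fixed anchor-drug dose together with five library-drug doses (not always all listed) in √10 steps, by pin tool, on the day after seeding. Nuclei were counted after 5 days, and relative viability is the treated-to-vehicle ratio of nuclei counts. Values are medians of duplicate plates.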
# Zebularine + Vorinostat = compound: O=c1ncccn1[C@@H]1O[C@H](CO)[C@@H](O)[C@H]1O [Zebularine] + O=C(CCCCCCC(=O)Nc1ccccc1)NO [Vorinostat] (partner 1 µM)
# Summary of the method: as §1
# BI-D1870 + Pemetrexed = compound: CC(C)CCN1c2nc(Nc3cc(F)c(O)c(F)c3)ncc2N(C)C(=O)C1C [BI-D1870] + Nc1nc2[nH]cc(CCc3ccc(C(=O)N[C@@H](CCC(=O)O)C(=O)O)cc3)c2c(=O)[nH]1 [Pemetrexed] (partner 0.2 µM)
# Summary of the method: as §1
# Zebularine + Pictilisib = compound: O=c1ncccn1[C@@H]1O[C@H](CO)[C@@H](O)[C@H]1O [Zebularine] + CS(=O)(=O)N1CCN(Cc2cc3nc(-c4cccc5[nH]ncc45)nc(N4CCOCC4)c3s2)CC1 [Pictilisib] (partner 1 µM)
# Summary of the method: as §1
cell line,measurement,setting,value
LC-2-ad,relative viability,BI-D1870 + Olaparib; first compound 0.04 µM,0.691
same,relative viability,BI-D1870 + Olaparib; first compound 0.1265 µM,0.66
same,relative viability,BI-D1870 + Olaparib; first compound 0.4 µM,0.725
same,relative viability,BI-D1870 + Olaparib; first compound 1.265 µM,0.609
same,relative viability,BI-D1870 + Olaparib; first compound 4 µM,0.624
same,relative viability,Zebularine + Vorinostat; first compound 1 µM,0.759
same,relative viability,Zebularine + Vorinostat; first compound 3.162 µM,0.691
same,relative viability,Zebularine + Vorinostat; first compound 10 µM,0.527
same,relative viability,Zebularine + Vorinostat; first compound 31.62 µM,0.644
same,relative viability,Zebularine + Vorinostat; first compound 100 µM,0.324
same,relative viability,BI-D1870 + Pemetrexed; first compound 0.04 µM,0.292
same,relative viability,BI-D1870 + Pemetrexed; first compound 0.1265 µM,0.267
same,relative viability,BI-D1870 + Pemetrexed; first compound 0.4 µM,0.264
same,relative viability,BI-D1870 + Pemetrexed; first compound 1.265 µM,0.275
same,relative viability,BI-D1870 + Pemetrexed; first compound 4 µM,0.253
same,relative viability,Zebularine + Pictilisib; first compound 1 µM,0.509
same,relative viability,Zebularine + Pictilisib; first compound 3.162 µM,0.421
same,relative viability,Zebularine + Pictilisib; first compound 10 µM,0.399
same,relative viability,Zebularine + Pictilisib; first compound 31.62 µM,0.258
same,relative viability,Zebularine + Pictilisib; first compound 100 µM,0.158
LCLC-97TM1,relative viability,BI-D1870 + Olaparib; first compound 0.04 µM,0.521
same,relative viability,BI-D1870 + Olaparib; first compound 0.1265 µM,0.33
same,relative viability,BI-D1870 + Olaparib; first compound 0.4 µM,0.38
same,relative viability,BI-D1870 + Olaparib; first compound 1.265 µM,0.634
same,relative viability,BI-D1870 + Olaparib; first compound 4 µM,0.301
same,relative viability,Zebularine + Vorinostat; first compound 1 µM,0.529
same,relative viability,Zebularine + Vorinostat; first compound 3.162 µM,0.253
same,relative viability,Zebularine + Vorinostat; first compound 10 µM,0.33
same,relative viability,Zebularine + Vorinostat; first compound 31.62 µM,0.157
same,relative viability,Zebularine + Vorinostat; first compound 100 µM,0.152
same,relative viability,BI-D1870 + Pemetrexed; first compound 0.04 µM,0.173
same,relative viability,BI-D1870 + Pemetrexed; first compound 0.1265 µM,0.188
same,relative viability,BI-D1870 + Pemetrexed; first compound 0.4 µM,0.16
same,relative viability,BI-D1870 + Pemetrexed; first compound 1.265 µM,0.221
same,relative viability,BI-D1870 + Pemetrexed; first compound 4 µM,0.175
same,relative viability,Zebularine + Pictilisib; first compound 1 µM,0.184
same,relative viability,Zebularine + Pictilisib; first compound 3.162 µM,0.081
same,relative viability,Zebularine + Pictilisib; first compound 10 µM,0.138
same,relative viability,Zebularine + Pictilisib; first compound 31.62 µM,0.124
same,relative viability,Zebularine + Pictilisib; first compound 100 µM,0.104
LCLC-103H,relative viability,BI-D1870 + Olaparib; first compound 0.04 µM,0.813
same,relative viability,BI-D1870 + Olaparib; first compound 0.1265 µM,0.68
same,relative viability,BI-D1870 + Olaparib; first compound 0.4 µM,0.676
same,relative viability,BI-D1870 + Olaparib; first compound 1.265 µM,0.764
same,relative viability,BI-D1870 + Olaparib; first compound 4 µM,0.671
same,relative viability,Zebularine + Vorinostat; first compound 1 µM,0.812
same,relative viability,Zebularine + Vorinostat; first compound 3.162 µM,0.697
same,relative viability,Zebularine + Vorinostat; first compound 10 µM,0.706
same,relative viability,Zebularine + Vorinostat; first compound 31.62 µM,0.77
same,relative viability,Zebularine + Vorinostat; first compound 100 µM,0.75
same,relative viability,BI-D1870 + Pemetrexed; first compound 0.04 µM,0.453
same,relative viability,BI-D1870 + Pemetrexed; first compound 0.1265 µM,0.457
same,relative viability,BI-D1870 + Pemetrexed; first compound 0.4 µM,0.48
same,relative viability,BI-D1870 + Pemetrexed; first compound 1.265 µM,0.434
same,relative viability,BI-D1870 + Pemetrexed; first compound 4 µM,0.439
same,relative viability,Zebularine + Pictilisib; first compound 1 µM,0.564
same,relative viability,Zebularine + Pictilisib; first compound 3.162 µM,0.603
same,relative viability,Zebularine + Pictilisib; first compound 10 µM,0.513
same,relative viability,Zebularine + Pictilisib; first compound 31.62 µM,0.612
same,relative viability,Zebularine + Pictilisib; first compound 100 µM,0.553
LK-2,relative viability,BI-D1870 + Olaparib; first compound 0.04 µM,0.913
same,relative viability,BI-D1870 + Olaparib; first compound 0.1265 µM,0.655
same,relative viability,BI-D1870 + Olaparib; first compound 0.4 µM,0.683
same,relative viability,BI-D1870 + Olaparib; first compound 1.265 µM,0.834
same,relative viability,BI-D1870 + Olaparib; first compound 4 µM,0.71
same,relative viability,Zebularine + Vorinostat; first compound 1 µM,0.277
same,relative viability,Zebularine + Vorinostat; first compound 3.162 µM,0.315
same,relative viability,Zebularine + Vorinostat; first compound 10 µM,0.209
same,relative viability,Zebularine + Vorinostat; first compound 31.62 µM,0.177
same,relative viability,Zebularine + Vorinostat; first compound 100 µM,0.28
same,relative viability,BI-D1870 + Pemetrexed; first compound 0.04 µM,0.253
same,relative viability,BI-D1870 + Pemetrexed; first compound 0.1265 µM,0.352
same,relative viability,BI-D1870 + Pemetrexed; first compound 0.4 µM,0.31
same,relative viability,BI-D1870 + Pemetrexed; first compound 1.265 µM,0.306
same,relative viability,BI-D1870 + Pemetrexed; first compound 4 µM,0.282
same,relative viability,Zebularine + Pictilisib; first compound 1 µM,0.617
same,relative viability,Zebularine + Pictilisib; first compound 3.162 µM,0.747
same,relative viability,Zebularine + Pictilisib; first compound 10 µM,0.266
same,relative viability,Zebularine + Pictilisib; first compound 31.62 µM,0.383
same,relative viability,Zebularine + Pictilisib; first compound 100 µM,0.36

# — the supplement of paper PMC10307832
